Test results reported in patent US10189854B2, “Substituted pyrimidine compounds” (Grünenthal GmbH, priority 2014, dated 2019).

target: human PDE4B1 (Homo sapiens (Human), UniProt Q07343); test: TR-FRET assay using the LANCE Ultra cAMP kit to determine the activity of hPDE4B1; format: biochemical; conditions: IC50 inhibition of PDE4B, mean
In short: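 Recombinant human PDE4B1 (Sf9-expressed, 0.96 U) incubated with compound and 500 nM cAMP in 50 mM Tris-HCl, 50 mM MgCl2, 5 mM DTT, pH 8.5, 30 min at room temperature. Residual cAMP read by TR-FRET (665/620 nm ratio) after IBMX stop. IC50 from ten-concentration curves as % inhibition of control.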

human PDE4B1, sequence (Q07343 whole entry): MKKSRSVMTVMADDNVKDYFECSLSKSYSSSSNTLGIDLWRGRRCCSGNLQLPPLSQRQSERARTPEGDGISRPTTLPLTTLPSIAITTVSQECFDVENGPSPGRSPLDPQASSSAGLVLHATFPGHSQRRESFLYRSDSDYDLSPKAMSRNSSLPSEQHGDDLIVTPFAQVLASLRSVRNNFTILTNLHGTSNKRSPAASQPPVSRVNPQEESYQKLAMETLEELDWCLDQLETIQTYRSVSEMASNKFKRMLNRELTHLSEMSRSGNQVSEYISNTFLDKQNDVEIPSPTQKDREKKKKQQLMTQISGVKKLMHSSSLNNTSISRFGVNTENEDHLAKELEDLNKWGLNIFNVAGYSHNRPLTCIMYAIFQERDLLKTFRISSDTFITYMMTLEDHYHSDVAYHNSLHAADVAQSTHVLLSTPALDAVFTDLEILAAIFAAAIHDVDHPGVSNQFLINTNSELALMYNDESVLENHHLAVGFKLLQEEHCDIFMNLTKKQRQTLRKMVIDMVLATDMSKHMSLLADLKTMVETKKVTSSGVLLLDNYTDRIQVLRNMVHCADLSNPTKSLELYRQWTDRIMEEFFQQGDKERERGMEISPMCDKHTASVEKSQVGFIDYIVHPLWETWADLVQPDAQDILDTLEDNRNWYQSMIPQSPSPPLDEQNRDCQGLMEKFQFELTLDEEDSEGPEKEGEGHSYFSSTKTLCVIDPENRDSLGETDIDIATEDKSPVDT

IC50, < 0.1 µM:
Cc1cccc(-c2cnc(N3CC4(CC4)c4ccc(C(=O)N(C)CC(N)=O)cc43)nc2)n1 [Compound 307, N-(Carbamoyl-methyl)-N-methyl-1-[5-(6-methyl-pyridin-2-yl)-pyrimidin-2-yl]-spiro[1,2-dihydro-indole-3,1′-cyclopropane]-6-carboxylic acid amide]
CCc1ccnc(-c2cnc(N3CC4(CC4)c4ccc(C(=O)N(C)CC(N)=O)cc43)nc2)c1 [Compound 308, N-(Carbamoyl-methyl)-1-[5-(4-ethyl-pyridin-2-yl)-pyrimidin-2-yl]-N-methyl-spiro[1,2-dihydro-indole-3,1′-cyclopropane]-6-carboxylic acid amide]
CN(CCO)C(=O)c1ccc2c(c1)N(c1ncc(-c3cc(C(C)(C)O)ccc3F)cn1)CC21CC1 [Compound 309, 1-[5-[2-Fluoro-5-(1-hydroxy-1-methyl-ethyl)-phenyl]-pyrimidin-2-yl]-N-(2-hydroxy-ethyl)-N-methyl-spiro[1,2-dihydro-indole-3,1′-cyclopropane]-6-carboxylic acid amide]
O=C(c1ccc2c(c1)N(c1ncc(-c3ccccc3F)cn1)CC21CC1)N1CC[C@H](CO)C1 [Compound 310, [1-[5-(2-Fluorophenyl)-pyrimidin-2-yl]-spiro[1,2-dihydro-indole-3,1′-cyclopropane]-6-yl]-[(3S)-3-(hydroxymethyl)-pyrrolidin-1-yl]-methanone]
O=C(c1ccc2c(c1)N(c1ncc(-c3ccccc3F)cn1)CC21CC1)N1CC[C@@H](CO)C1 [Compound 311, [1-[5-(2-Fluorophenyl)-pyrimidin-2-yl]-spiro[1,2-dihydro-indole-3,1′-cyclopropane]-6-yl]-[(3R)-3-(hydroxymethyl)-pyrrolidin-1-yl]-methanone]
CC(O)c1ccc(F)c(-c2cnc(N3CC4(CC4)c4ccc(C(=O)N(C)CCO)cc43)nc2)c1 (stereo not shown) [Compound 312, 1-[5-[2-Fluoro-5-(1-hydroxy-ethyl)-phenyl]-pyrimidin-2-yl]-N-(2-hydroxy-ethyl)-N-methyl-spiro[1,2-dihydro-indole-3,1′-cyclopropane]-6-carboxylic acid amide]
O=C(c1ccc2c(c1)N(c1ncc(-c3ccccc3F)cn1)CC21CC1)N1CCC[C@@H](CO)C1 [Compound 313, [1-[5-(2-Fluorophenyl)-pyrimidin-2-yl]-spiro[1,2-dihydro-indole-3,1′-cyclopropane]-6-yl]-[(3R)-3-(hydroxymethyl)-piperidin-1-l]-methanone]
CN(CCO)C(=O)c1ccc2c(c1)N(c1ncc(-c3cc(C(C)(C)O)ccn3)cn1)CC21CC1 [Compound 314, N-(2-Hydroxy-ethyl)-1-[5-[4-(1-hydroxy-1-methyl-ethyl)-pyridin-2-yl]-pyrimidin-2-yl]-N-methyl-spiro[1,2-dihydro-indole-3,1′-cyclopropane]-6-carboxylic acid amide]
CN(CCO)C(=O)c1ccc2c(c1)N(c1ncc(-c3cc(N4CCCC4)ccn3)cn1)CC21CC1 [Compound 315, N-(2-Hydroxy-ethyl)-N-methyl-1-[5-(4-pyrrolidin-1-yl-pyridin-2-yl)-pyrimidin-2-yl]-spiro[1,2-dihydro-indole-3,1′-cyclopropane]-6-carboxylic acid amide]
CCNc1ccnc(-c2cnc(N3CC4(CC4)c4ccc(C(=O)N(C)CCO)cc43)nc2)c1 [Compound 316, 1-[5-(4-Ethylamino-pyridin-2-yl)-pyrimidin-2-yl]-N-(2-hydroxy-ethyl)-N-methyl-spiro[1,2-dihydro-indole-3,1′-cyclopropane]-6-carboxylic acid amide]
O=C(c1ccc2c(c1)N(c1ncc(-c3ccccc3F)cn1)CC21CC1)N1CCC[C@H](CO)C1 [Compound 317, [1-[5-(2-Fluorophenyl)-pyrimidin-2-yl]-spiro[1,2-dihydro-indole-3,1′-cyclopropane]-6-yl]-[(3S)-3-(hydroxymethyl)-piperidin-1-yl]-methanone]
CC(O)c1ccnc(-c2cnc(N3CC4(CC4)c4ccc(C(=O)N(C)CCO)cc43)nc2)c1 (stereo not shown) [Compound 318, N-(2-Hydroxy-ethyl)-1-[5-[4-(1-hydroxy-ethyl)-pyridin-2-yl]-pyrimidin-2-yl]-N-methyl-spiro[1,2-dihydro-indole-3,1′-cyclopropane]-6-carboxylic acid amide]
CN(CCO)C(=O)c1ccc2c(c1)N(c1ncc(-c3cc(NCC4CC4)ccn3)cn1)CC21CC1 [Compound 319, 1-[5-[4-(Cyclopropyl-methylamino)-pyridin-2-yl]-pyrimidin-2-yl]-N-(2-hydroxy-ethyl)-N-methyl-spiro[1,2-dihydro-indole-3,1′-cyclopropane]-6-carboxylic acid amide]
CN(CC(N)=O)C(=O)c1ccc2c(c1)N(c1ncc(-c3ccccn3)cn1)CC21CC1 [Compound 320, N-(2-amino-2-oxoethyl)-N-methyl-1′-(5-(pyridin-2-yl)pyrimidin-2-yl)spiro[cyclopropane-1,3′-indoline]-6′-carboxamide]
COc1ccnc(-c2cnc(N3CC4(CC4)c4ccc(C(=O)N(C)CC(N)=O)cc43)nc2)c1 [Compound 321, N-(Carbamoyl-methyl)-1-[5-(4-methoxy-pyridin-2-yl)-pyrimidin-2-yl]-N-methyl-spiro[1,2-dihydro-indole-3,1′-cyclopropane]-6-carboxylic acid amide]
CC(O)c1cccc(-c2cnc(N3CC4(CC4)c4ccc(C(=O)N(C)CCO)cc43)nc2)c1 (stereo not shown) [Compound 322, N-(2-Hydroxy-ethyl)-1-[5-[3-(1-hydroxy-ethyl)-phenyl]-pyrimidin-2-yl]-N-methyl-spiro[1,2-dihydro-indole-3,1′-cyclopropane]-6-carboxylic acid amide]
CN(CCO)C(=O)c1ccc2c(c1)N(c1ncc(-c3cn(C)cn3)cn1)CC21CC1 [Compound 323, N-(2-Hydroxy-ethyl)-N-methyl-1-[5-(1-methyl-1H-imidazol-4-yl)-pyrimidin-2-yl]-spiro[1,2-dihydro-indole-3,1′-cyclopropane]-6-carboxylic acid amide]
Cc1nc(-c2cnc(N3CC4(CC4)c4ccc(C(=O)N(C)CCO)cc43)nc2)cs1 [Compound 324, N-(2-Hydroxy-ethyl)-N-methyl-1-[5-(2-methyl-thiazol-4-yl)-pyrimidin-2-yl]-spiro[1,2-dihydro-indole-3,1′-cyclopropane]-6-carboxylic acid amide]
CCc1nc(-c2cnc(N3CC4(CC4)c4ccc(C(=O)N(C)CCO)cc43)nc2)cs1 [Compound 325, 1-[5-(2-Ethyl-thiazol-4-yl)-pyrimidin-2-yl]-N-(2-hydroxy-ethyl)-N-methyl-spiro[1,2-dihydro-indole-3,1′-cyclopropane]-6-carboxylic acid amide]
CN(CCO)C(=O)c1ccc2c(c1)N(c1ncc(-c3csc(CO)n3)cn1)CC21CC1 [Compound 326, N-(2-Hydroxy-ethyl)-1-[5-[2-(hydroxymethyl)-thiazol-4-yl]-pyrimidin-2-yl]-N-methyl-spiro[1,2-dihydro-indole-3,1′-cyclopropane]-6-carboxylic acid amide]
CN(CCO)C(=O)c1ccc2c(c1)N(c1ncc(-c3csc(C(N)=O)n3)cn1)CC21CC1 [Compound 327, 4-[2-[6-[(2-Hydroxy-ethyl)-methyl-carbamoyl]-spiro[1,2-dihydro-indole-3,1′-cyclopropane]-1-yl]-pyrimidin-5-yl]-thiazole-2-carboxylic acid amide]
COc1cc(OC)nc(-c2cnc(N3CC4(CC4)c4ccc(C(=O)N(C)CCO)cc43)nc2)c1 [Compound 328, 1-[5-(4,6-Dimethoxy-pyridin-2-yl)-pyrimidin-2-yl]-N-(2-hydroxy-ethyl)-N-methyl-spiro[1,2-dihydro-indole-3,1′-cyclopropane]-6-carboxylic acid amide]
N[C@@H]1CCN(C(=O)c2ccc3c(c2)N(c2ncc(-c4ccccn4)cn2)CC32CC2)C1 [Compound 329, [(3R)-3-Amino-pyrrolidin-1-yl]-[1-(5-pyridin-2-yl-pyrimidin-2-yl)-spiro[1,2-dihydro-indole-3,1′-cyclopropane]-6-yl]-methanone]
COc1ccnc(-c2cnc(N3CC4(CC4)c4ccc(C(=O)N5CC[C@@H](N)C5)cc43)nc2)c1 [Compound 330, [(3R)-3-Amino-pyrrolidin-1-yl]-[1-[5-(4-methoxy-pyridin-2-yl)-pyrimidin-2-yl]-spiro[1,2-dihydro-indole-3,1′-cyclopropane]-6-yl]-methanone]
CC(C)c1ccnc(-c2cnc(N3CC4(CC4)c4ccc(C(=O)N5CC[C@@H](N)C5)cc43)nc2)c1 [Compound 331, [(3R)-3-Amino-pyrrolidin-1-yl]-[1-[5-(4-isopropyl-pyridin-2-yl)-pyrimidin-2-yl]-spiro[1,2-dihydro-indole-3,1′-cyclopropane]-6-yl]-methanone]
O=C(c1ccc2c(c1)N(c1ncc(-c3cc(C4CC4)ccn3)cn1)CC21CC1)N1CCC[C@H](CO)C1 [Compound 332, [1-[5-(4-Cyclopropyl-pyridin-2-yl)-pyrimidin-2-yl]-spiro[1,2-dihydro-indole-3,1′-cyclopropane]-6-yl]-[(3S)-3-(hydroxymethyl)-piperidin-1-yl]-methanone]
CN(CCO)C(=O)c1ccc2c(c1)N(c1ncc(-c3cc(NCC4CC4)ccc3F)cn1)CC21CC1 [Compound 333, 1-[5-[5-(Cyclopropyl-methylamino)-2-fluoro-phenyl]-pyrimidin-2-yl]-N-(2-hydroxy-ethyl)-N-methyl-spiro[1,2-dihydro-indole-3,1′-cyclopropane]-6-carboxylic acid amide]
Cc1ccnc(-c2cnc(N3CC4(CC4)c4ccc(C(=O)N5CC[C@@H](N)C5)cc43)nc2)c1 [Compound 334, [(3R)-3-Amino-pyrrolidin-1-yl]-[1-[5-(4-methyl-pyridin-2-yl)-pyrimidin-2-yl]-spiro[1,2-dihydro-indole-3,1′-cyclopropane]-6-yl]-methanone]
